The test system of data set [1] is PDH. As to conditions: 24 hours at 37°C, 5% CO2, fluorescence microscopy; for FITC-labelled cells (internalization): 0.5 µM; for percentage of FITC-labelled cells: 2 µM.
Protocol: Next we analyzed cellular internalization of Deca-(Arg)8-FITC and Arg8-FITC in PDH cells using fluorescence microscopy.
(A); PDHs were plated and treated with (Arg)8 (left panel) or Deca-(Arg)8 (right panel) coupled to FITC at different concentration ranking from 0.5 µM to 2 µM and cells were incubated at 37°c, 5% of CO2 for 24 hours. Cells were observed by fluorescence microscopy (Magnificationx20).
Data set [2] concerns Duck Hepatitis B Virus (DHBV). The data set is described as follows: Intracellular viral RNA and DNA replicative forms in infected PDH (Northern and Southern blot). In kind it is cell-based. As to conditions: 5 days, 3-TC as control. The method, then: (§1) To determine whether the decrease in DHBV secretion is caused by an inhibition of virus replication, LMH-D2 cells and PDHs were treated with different concentration of Deca-(Arg)8 followed by quantification of viral RNA and intracellular DNA replication intermediates by Northern and Southern blot, respectively. As a control, cells were treated by 3-TC, which is a specific inhibitor of the DHBV polymerase, [33]. […] An unspecific effect on transcription can be excluded as mRNA synthesis in transfected LMH-D2 cells was not impaired.
(§2) Figure 4 Effect of Deca-(Arg)8 on the intracellular hepadnavirus intermediate replicative forms. Infected PDH (A), and stably DHBV-transfected LMH-D2 (B) cells were treated with different amounts of Deca-(Arg)8 ranking from 0.5 µM to 2 µM for 5 days. At the end of treatment, the cells were harvested and lysed for DNA and RNA extraction. […] For the Northern blot the level of DHBV RNA was normalized on the GAPDH RNA amount. […] Bands corresponding to the expected size of relaxed circular (RC), linear (L), single-stranded (SS) and covalently closed circular (ccc) DHBV DNA are indicated. […]
(§3) Cells supernatants were harvested daily, spotted onto positively charged nylon membrane and extracellular DHBV DNA was detected in supernatant of cells by dot blot hybridization assay using a full-length ^32P-labelled DHBV probe as described previously. […]

The subject of data set [3] is Duck Hepatitis B Virus (DHBV). The data set is described as follows: Intracellular viral RNA and DNA replicative forms in LMH-D2 cells (Northern and Southern blot). In kind it is cell-based. The note with it: 5 days, Deca-(Arg)8 at 2 µM, 3-TC as control, Northern blot normalized on GAPDH RNA. The method, then: as §1, §2, §3
Data set [4] concerns Duck Hepatitis B Virus (DHBV). As to conditions: for IC50: 16 h. The procedure: (§4) Infected PDH and LMH-D2 cells were treated with 2 µM of several modified cationic peptides for 5 days. Cells supernatants were collected daily and were spotted onto positively charged nylon membrane and DHBV DNA was detected by hybridization with a DHBV DNA probe labeled with ^32P, and then was quantified by PhosphorImager scanning using ImageQuant software (Molecular Dynamics) to monitor DHBV release. Relative areas under curves determined by the means of duplicate, compared to untreated cells set at 100% are represented. […] Cell viability was determined by enzymatic activity MTT assay after daily incubation with different concentrations of Deca-(Arg)8 ranking from 1 µM to 4 µM during six days. The error bars display the standard deviation of duplicates in three independent experiments.
(§5) DHBV-infected PDHs (A), and stable transfected LMH-D2 cells (B) were treated with increasing amounts of Deca-(Arg)8 ranking from 0.25 µM to 2 µM in duplicates for 6 and 4 days, respectively. Cell culture supernatants were collected daily during treatment. The kinetics of viral release in cell culture supernatants, monitored by dot-blot hybridization and quantified by PhosphorImager scanning using ImageQuant software (Molecular Dynamics) is represented on the upper panel. Relative areas under curves determined by the means of duplicate, compared to untreated cells, are represented in the lower panel. The curves are representative of at least two independent experiments.
(§6) Primary duck hepatocytes (PDH) were isolated from Pekin duck embryos as previously described. DHBV infection was performed at the same time as plating by overnight incubation (16 h) of the hepatocytes with a virus-positive duck serum (30 virus genome equivalents (vge) per cell). The previously described avian hepatoma DHBV transfected LMH-D2 cell line, [38] was grown as previously described. The stably HBV-transfected cell line HepG2.2.15 was grown as previously described. Different amounts of CatLip were added daily to the culture medium from day 1 post-seeding and cells were lyzed at the end of treatment for analysis of intracellular viral DNA, RNA, and proteins. The growth medium was harvested and changed daily. The cellular toxicity was analyzed by daily examination of cells with a light microscope and by a cell toxicity test based on the (3-(4,5-dimethylthiazol-2-yl)-2,5 diphenyl-tetrazolium-bromide (MTT) assay.
(§7) Cells supernatants were harvested daily, spotted onto positively charged nylon membrane and extracellular DHBV DNA was detected in supernatant of cells by dot blot hybridization assay using a full-length ^32P-labelled DHBV probe as described previously. For DHBV intermediate replicative forms analysis, DNA was extracted from cells and 10 µg of the total cellular DNA were subjected to electrophoresis on 1% agarose gel, followed by Southern blot analysis and hybridization with ^32P-labeled genomic DHBV probe as previously described. Viral DNA was quantified by PhosphorImager scanning using ImageQuant software (Molecular Dynamics).

In data set [5] the test system is Duck Hepatitis B Virus (DHBV). The data set is described as follows: Inhibition of DHBV release in stably DHBV-transfected LMH-D2 cells (dot-blot of supernatant DHBV DNA). The class given is cell-based. The note with it: concentration of CPP resulting in 50% inhibition of DHBV release, peptide added daily, PhosphorImager. The procedure: as §4, §5, §6, §7
Data set [6] deals with PDH. In words: MTT cell viability, PDH. The class given is cell-based, Pekin duck. As to conditions: daily exposure 1 µM to 4 µM for 6 days, duplicates in three independent experiments. The method, then:
(§8) Figure 1 Inhibition of DHBV release in PDHs and LMH-D2 cells by modified cationic peptides and effect of Deca-(Arg)8 on cell viability. Infected PDH and LMH-D2 cells were treated with 2 µM of several modified cationic peptides for 5 days. […] Relative areas under curves determined by the means of duplicate, compared to untreated cells set at 100% are represented. The two representations show the effect of modified cationic peptides derived from (Arg)8 sequence with increasing number of arginine in the peptide (A) or with increasing number of carbon in the fatty acid chain (B). Dose-dependent effects of Deca-(Arg)8 transduction on cell viability (C). Cell viability was determined by enzymatic activity MTT assay after daily incubation with different concentrations of Deca-(Arg)8 ranking from 1 µM to 4 µM during six days. The error bars display the standard deviation of duplicates in three independent experiments. […]
(§9) Primary duck hepatocytes (PDH) were isolated from Pekin duck embryos as previously described. […] The cellular toxicity was analyzed by daily examination of cells with a light microscope and by a cell toxicity test based on the (3-(4,5-dimethylthiazol-2-yl)-2,5 diphenyl-tetrazolium-bromide (MTT) assay.

The test system of the next data set is LMH-D2 cells. In kind it is cell-based, avian. The note with it: daily exposure 1 µM to 4 µM for 6 days, duplicates in three independent experiments. The method, then:
as §8, §9

Consider 8 compounds from paper PMC3500254, “Potent Inhibition of Late Stages of Hepadnavirus Replication by a Modified Cell Penetrating Peptide” (PLoS ONE, 2012).

Read-outs that look alike come from different tables or passages of the source. Non-standard residues stand in square brackets, D forms with d. Residues, ends and D or L forms follow the SMILES beside them. *: point of attachment. Myristoyl = CCCCCCCCCCCCCC(=O)*; Lauroyl = CCCCCCCCCCCC(=O)*; Decanoyl = CCCCCCCCCC(=O)*

On to “Decanoic acid (C10:0)-Fluoresceinyl-lysine–RRRRRRRRG-NH2 [Deca-(Arg)8-FITC]”, for which, in the data set with PDH [1], the “FITC-labelled cells (internalization)” value is “a higher number of FITC-labelled cells were observable” and the “percentage of FITC-labelled cells” value is “more than 90%”.
With `Nc1ccn([C@@H]2CS[C@H](CO)O2)c(=O)n1` [3-TC, Lamivudine], the “viral RNA levels” value in data set [2] (PDH, Deca-(Arg)8 at 2 µM, Northern blot normalized on GAPDH RNA) is “reduction of viral mRNA synthesis”; in data set [3] it was “not impaired”. Moreover, in data set [2] (infected PDH, Deca-(Arg)8 0.5 µM to 2 µM, Southern blot), the cccDNA entry is on record as “prevented cccDNA formation”.
“Fluoresceinyl-lysine-RRRRRRRRG-NH2 [(Arg)8-FITC]”: in the data set on PDH [1], the “FITC-labelled cells (internalization)” value was “remained negative” and the “percentage of FITC-labelled cells” value is listed as 70%.
For `CCCCCCCCCC(=O)N[C@H](Cc1c[nH]c2ccccc12)C(=O)N[C@H](CCCNC(=N)N)C(=O)N[C@H](CCCNC(=N)N)C(=O)N[C@H](CCCNC(=N)N)C(=O)N[C@H](CCCNC(=N)N)C(=O)N[C@H](CCCNC(=N)N)C(=O)N[C@H](CCCNC(=N)N)C(=O)N[C@H](CCCNC(=N)N)C(=O)N[C@H](CCCNC(=N)N)C(=O)NCC(N)=O` [Deca-(Arg)8] (Decanoyl-[dW][dR][dR][dR][dR][dR][dR][dR][dR]G-NH2), the IC50 (commonly the midpoint of a concentration-inhibition curve) stood at 600 nM in data set [4] and 300 nM in data set [5]. Further, the “cell viability (MTT) versus untreated cells” value in the data set with PDH [6] and in the data set on LMH-D2 cells was “No statistically significant difference” each time.
Turning to `CCCCCCCCCCCCCC(=O)N[C@H](Cc1c[nH]c2ccccc12)C(=O)N[C@H](CCCNC(=N)N)C(=O)N[C@H](CCCNC(=N)N)C(=O)N[C@H](CCCNC(=N)N)C(=O)N[C@H](CCCNC(=N)N)C(=O)N[C@H](CCCNC(=N)N)C(=O)N[C@H](CCCNC(=N)N)C(=O)N[C@H](CCCNC(=N)N)C(=O)N[C@H](CCCNC(=N)N)C(=O)NCC(N)=O` [Myrist-(Arg)8] (Myristoyl-[dW][dR][dR][dR][dR][dR][dR][dR][dR]G-NH2), the IC50 in data set [4] and in data set [5] was 1200 nM each time.
With `CCCCCCCCCCCC(=O)N[C@H](Cc1c[nH]c2ccccc12)C(=O)N[C@H](CCCNC(=N)N)C(=O)N[C@H](CCCNC(=N)N)C(=O)N[C@H](CCCNC(=N)N)C(=O)N[C@H](CCCNC(=N)N)C(=O)N[C@H](CCCNC(=N)N)C(=O)N[C@H](CCCNC(=N)N)C(=O)N[C@H](CCCNC(=N)N)C(=O)N[C@H](CCCNC(=N)N)C(=O)NCC(N)=O` [Dodeca-(Arg)8] (Lauroyl-[dW][dR][dR][dR][dR][dR][dR][dR][dR]G-NH2), the IC50 in data set [4] was 900 nM; in data set [5] it was 700 nM.
For the compound `N=C(N)NCCC[C@@H](NC(=O)[C@H](N)Cc1c[nH]c2ccccc12)C(=O)N[C@H](CCCNC(=N)N)C(=O)N[C@H](CCCNC(=N)N)C(=O)N[C@H](CCCNC(=N)N)C(=O)N[C@H](CCCNC(=N)N)C(=O)N[C@H](CCCNC(=N)N)C(=O)N[C@H](CCCNC(=N)N)C(=O)N[C@H](CCCNC(=N)N)C(=O)NCC(N)=O` [(Arg)8] (H-[dW][dR][dR][dR][dR][dR][dR][dR][dR]G-NH2), the “inhibition of DHBV secretion” value in data set [4] (5-days treatment, (Arg)8 0.5 to 2 µM, compared with Deca-(Arg)8, Fig. S2 (PDH and LMH-D2; cell system not given)) is on record as 60%. The IC50 in data set [4] came out at 1800 nM; in data set [5], 1300 nM.
Consider `CCCCCCCCCC(=O)N[C@H](Cc1c[nH]c2ccccc12)C(=O)N[C@H](CCCNC(=N)N)C(=O)N[C@H](CCCNC(=N)N)C(=O)N[C@H](CCCNC(=N)N)C(=O)N[C@H](CCCNC(=N)N)C(=O)N[C@H](CCCNC(=N)N)C(=O)N[C@H](CCCNC(=N)N)C(=O)N[C@H](CCCNC(=N)N)C(=O)NCC(N)=O` [Deca-(Arg)7], for which the figures for the IC50 in data set [4] and in data set [5] were 900 nM and 800 nM, respectively.
